# Data: patent US4363805A, “Aminodesoxy-1.4;3.6-dianhydrohexitol nitrates and pharmaceutical composition” (Firma Willmar Schwabe, priority 1980, dated 1982)
# Tests used:
# [1] = test system: narcotised guinea pigs; assay: Blood pressure experiments on guinea pigs, i.v.; format: in vivo, guinea pig
# [2] = test system: mongrel cats; assay: Inotropic and heart-circulatory effectiveness on narcotised cats, intravenous; format: in vivo, cat; details: 6 animals
# [3] = test system: mongrel cats; assay: Inotropic and heart-circulatory effectiveness on narcotised cats, intraduodenal; format: in vivo, cat; details: 5 mg/kg intraduodenal
# [4] = Acute toxicity, intravenous, mice; format: in vivo; details: mouse, in vivo; intravenous, within 24 hours; read-out: Evaluated LD50-range
# [5] = test system: female NMRI-albino mice; assay: Acute toxicity, intravenous, mice; format: in vivo; details: within 24 hours
# [6] = test system: isolated guinea pig hearts; assay: Experiments on Langendorff hearts (coronary flowthrough, inotropism, frequency); details: Cavia porcellus, read-out: flowthrough, percentage change with regard to the initial value
# Procedure: After reaching the stationary state in the 30th minute, the hearts were each perfused with 50 ml. tyrode solution with a content of test substance of, in each case, 25 μg./ml. Each test substance was tested on 3-6 hearts.
# In each case, there was measured the inotropism, the flowthrough and the frequency, whereby the values given in Table I are average values of the percentage changes in comparison with the initial values.
# [7] = 0.25 mg/kg i.v., before administration
smiles,measurement,setting,value
"O=[N+]([O-])O[C@H]1CO[C@H]2[C@@H]1OC[C@@H]2NCC(O)COc1cccc(C(F)(F)F)c1 (stereo partly drawn) [Example 52, 5-[2-Hydroxy-3-(3-trifluoromethylphenoxy)-propylamino]-5-desoxy-1.4;3.6-dianhydro-L-iditol 2-nitrate]",blood pressure after,[1]; 0.25 mg/kg i.v.,60.50 ± 1.32 mm.Hg
same,blood pressure Δ,[1]; 0.25 mg/kg i.v.,-5.00 mm.Hg
same,blood pressure before,[1]; [7],65.50 ± 1.50 mm.Hg
same,blood pressure after,[1]; 1.00 mg/kg i.v.,49.25 ± 4.37 mm.Hg
same,blood pressure Δ,[1]; 1.00 mg/kg i.v.,-11.75 mm.Hg
same,blood pressure after,[1]; 2.50 mg/kg i.v.,39.00 ± 4.38 mm.Hg
same,blood pressure Δ,[1]; 2.50 mg/kg i.v.,-17.75 mm.Hg
same,blood pressure before,[2]; [7],91.7 mm.Hg
same,dp/dt (inotropism) before,[2]; [7],6150 mm.Hg/sec
same,heart frequency before,[2]; [7],216.7 min⁻¹
same,blood pressure WD,[2]; 0.25 mg/kg i.v.,5.6 min
same,blood pressure after,[2]; 0.25 mg/kg i.v.,77.2 mm.Hg
same,blood pressure Δ,[2]; 0.25 mg/kg i.v.,-14.5 mm.Hg
same,dp/dt (inotropism) after,[2]; 0.25 mg/kg i.v.,5517 mm.Hg/sec
same,dp/dt (inotropism) Δ,[2]; 0.25 mg/kg i.v.,-633 mm.Hg/sec
same,dp/dt WD,[2]; 0.25 mg/kg i.v.,4.2 min
same,heart frequency after,[2]; 0.25 mg/kg i.v.,216.7 min⁻¹
same,heart frequency Δ,[2]; 0.25 mg/kg i.v.,0 min⁻¹
same,blood pressure WD,[2]; 0.50 mg/kg i.v.,11.7 min
same,blood pressure after,[2]; 0.50 mg/kg i.v.,74.8 mm.Hg
same,blood pressure Δ,[2]; 0.50 mg/kg i.v.,-19.9 mm.Hg
same,dp/dt (inotropism) after,[2]; 0.50 mg/kg i.v.,5133 mm.Hg/sec
same,dp/dt (inotropism) Δ,[2]; 0.50 mg/kg i.v.,-850 mm.Hg/sec
same,dp/dt WD,[2]; 0.50 mg/kg i.v.,10.5 min
same,heart frequency after,[2]; 0.50 mg/kg i.v.,217.0 min⁻¹
same,heart frequency Δ,[2]; 0.50 mg/kg i.v.,0 min⁻¹
same,blood pressure WD,[2]; 1.00 mg/kg i.v.,14.7 min
same,blood pressure after,[2]; 1.00 mg/kg i.v.,69.2 mm.Hg
same,blood pressure Δ,[2]; 1.00 mg/kg i.v.,-26.5 mm.Hg
same,dp/dt (inotropism) after,[2]; 1.00 mg/kg i.v.,4250 mm.Hg/sec
same,dp/dt (inotropism) Δ,[2]; 1.00 mg/kg i.v.,-1333 mm.Hg/sec
same,dp/dt WD,[2]; 1.00 mg/kg i.v.,15.3 min
same,heart frequency after,[2]; 1.00 mg/kg i.v.,217.3 min⁻¹
same,heart frequency Δ,[2]; 1.00 mg/kg i.v.,-1.0 min⁻¹
same,blood pressure WD,[2]; 2.50 mg/kg i.v.,> 10 min
same,blood pressure after,[2]; 2.50 mg/kg i.v.,60.5 mm.Hg
same,blood pressure Δ,[2]; 2.50 mg/kg i.v.,-34.5 mm.Hg
same,dp/dt (inotropism) after,[2]; 2.50 mg/kg i.v.,2733 mm.Hg/sec
same,dp/dt (inotropism) Δ,[2]; 2.50 mg/kg i.v.,-2500 mm.Hg/sec
same,dp/dt WD,[2]; 2.50 mg/kg i.v.,> 10 min
same,heart frequency after,[2]; 2.50 mg/kg i.v.,204.0 min⁻¹
same,heart frequency Δ,[2]; 2.50 mg/kg i.v.,-14.3 min⁻¹
same,blood pressure,[3]; 0 min after admin.,113.8 ± 5.8 mm.Hg
same,dp/dt (inotropism),[3]; 0 min after admin.,6540 ± 631 mm.Hg/sec
same,heart frequency,[3]; 0 min after admin.,209.6 ± 15.7 min⁻¹
same,blood pressure,[3]; 10 min after admin.,100.4 mm.Hg
same,blood pressure Δ,[3]; 10 min after admin.,-13.4 mm.Hg
same,dp/dt (inotropism),[3]; 10 min after admin.,6200 ± 374 mm.Hg/sec
same,dp/dt (inotropism) Δ,[3]; 10 min after admin.,-340 mm.Hg/sec
same,heart frequency,[3]; 10 min after admin.,212.4 ± 13.8 min⁻¹
same,blood pressure,[3]; 30 min after admin.,95.6 ± 9.9 mm.Hg
same,blood pressure Δ,[3]; 30 min after admin.,-18.2 mm.Hg
same,dp/dt (inotropism),[3]; 30 min after admin.,6120 ± 270 mm.Hg/sec
same,dp/dt (inotropism) Δ,[3]; 30 min after admin.,-440 mm.Hg/sec
same,heart frequency,[3]; 30 min after admin.,212.8 ± 13.1 min⁻¹
same,blood pressure,[3]; 60 min after admin.,95.8 ± 8.0 mm.Hg
same,blood pressure Δ,[3]; 60 min after admin.,-18.0 mm.Hg
same,dp/dt (inotropism),[3]; 60 min after admin.,5480 ± 314 mm.Hg/sec
same,dp/dt (inotropism) Δ,[3]; 60 min after admin.,-1060 mm.Hg/sec
same,heart frequency,[3]; 60 min after admin.,216.0 ± 12.3 min⁻¹
same,blood pressure,[3]; 120 min after admin.,98.4 ± 9.0 mm.Hg
same,blood pressure Δ,[3]; 120 min after admin.,-15.4 mm.Hg
same,dp/dt (inotropism),[3]; 120 min after admin.,5460 ± 768 mm.Hg/sec
same,dp/dt (inotropism) Δ,[3]; 120 min after admin.,-1080 mm.Hg/sec
same,heart frequency,[3]; 120 min after admin.,214.4 ± 11.6 min⁻¹
same,LD50 at 24 h,[4],100 to 200 mg/kg
same,Frequency of death,[5]; 100 mg/kg i.v.,1/3
same,Frequency of death,[5]; 200 mg/kg i.v.,6/6
same,activation at 25 µg/mL,[6],214%
